For 38 compounds, IC50 results are on record in BindingDB's records for doi:10.1016/j.bmcl.2011.06.024 (Merck Research Laboratories, 2011).

Some results are limits rather than exact numbers.

T1 sequence (Q99835 whole entry): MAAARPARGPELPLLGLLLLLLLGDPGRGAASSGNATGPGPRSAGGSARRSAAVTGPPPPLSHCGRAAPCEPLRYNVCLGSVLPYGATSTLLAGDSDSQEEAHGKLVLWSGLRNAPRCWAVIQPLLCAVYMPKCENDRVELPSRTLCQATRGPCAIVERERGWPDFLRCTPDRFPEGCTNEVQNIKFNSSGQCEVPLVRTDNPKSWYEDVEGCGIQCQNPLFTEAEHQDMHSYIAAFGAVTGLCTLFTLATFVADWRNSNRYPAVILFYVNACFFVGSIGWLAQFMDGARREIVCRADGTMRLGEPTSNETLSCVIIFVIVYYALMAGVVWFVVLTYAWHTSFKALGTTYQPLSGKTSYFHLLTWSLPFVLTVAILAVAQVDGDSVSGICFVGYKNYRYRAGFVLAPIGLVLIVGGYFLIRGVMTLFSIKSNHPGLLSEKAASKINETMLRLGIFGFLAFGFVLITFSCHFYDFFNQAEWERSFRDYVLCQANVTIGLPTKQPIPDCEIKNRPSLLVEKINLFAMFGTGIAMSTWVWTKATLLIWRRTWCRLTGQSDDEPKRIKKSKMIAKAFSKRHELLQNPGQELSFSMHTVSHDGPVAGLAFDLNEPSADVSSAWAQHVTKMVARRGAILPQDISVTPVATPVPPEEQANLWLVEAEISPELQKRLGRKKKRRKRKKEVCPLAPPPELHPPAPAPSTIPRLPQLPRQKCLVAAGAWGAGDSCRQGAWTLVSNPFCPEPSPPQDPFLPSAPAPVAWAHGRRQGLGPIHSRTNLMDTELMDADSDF

The first assay addresses T1, Smoothened homolog (Homo sapiens, UniProt Q99835). Description: Displacement of [125I]-PA cyclopamine from smoothened expressed in african green monkey COS-1 cells after 10 mins by autoradiography.
Regarding `O=C(Nc1ccccc1-c1ccccc1)N1CCn2c(c(O)n(-c3cccc(-c4ccccc4)c3)c2=O)C1`, the IC50 is > 2500 nM. Take `O=C(Nc1ccccc1-c1ccccc1)N1CCn2c(c(O)n(C3CC34CCCCC4)c2=O)C1` (stereo not given): the IC50 was > 2500 nM. For the compound `COC(=O)N1CCn2c(c(O)n([C@H]3C[C@@H]3c3ccccc3)c2=O)C1`, the 50% inhibitory concentration (IC50) was > 1500 nM. Regarding `CC(=O)N1CCn2c(c(O)n([C@H]3C[C@@H]3c3ccccc3)c2=O)C1`, the concentration for half-maximal inhibition (IC50) is > 1500 nM.

With `O=C(C1CCCCC1)N1CCn2c(c(O)n([C@H]3C[C@@H]3c3ccccc3)c2=O)C1`, the 50% inhibitory concentration (IC50) was > 1500 nM. `O=c1n2c(c(O)n1[C@H]1C[C@@H]1c1ccccc1)CN(CC1CCCCC1)CC2`: the IC50 is > 2500 nM.

As to `O=C(NCc1ccco1)N1CCn2c(c(O)n([C@H]3C[C@@H]3c3ccccc3)c2=O)C1`, the IC50 is > 2500 nM. On the same count and under the same terms, then `O=C(Nc1ccccc1-c1ccccc1)N1CCn2c(c(O)n(Cc3ccccc3)c2=O)C1`, with > 2500 nM.

For `O=C(Nc1ccccc1-c1ccccc1)N1CCn2c(c(O)n(-c3cccc4ccccc34)c2=O)C1`, the IC50 is > 2500 nM. Turning to `CCCCn1c(O)c2n(c1=O)CCN(C(=O)Nc1ccccc1-c1ccccc1)C2`, the 50% inhibitory concentration (IC50) is > 2500 nM.

On to `CN(C)C(=O)N1CCn2c(c(O)n([C@H]3C[C@@H]3c3ccccc3)c2=O)C1`, for which the half-inhibitory concentration (IC50) was > 2500 nM.

The target in another assay is T1, Smoothened homolog. Put plainly: Antagonist activity at smoothened expressed in mouse Shh Light2 cells co-expressing Gli-dependent reporter gene assessed as inhibition of Hh pathway.
On to `O=C(Nc1ccccc1-c1ccccc1)N1CCn2c(c(O)n(C3CC34CCCCC4)c2=O)C1` (stereo not given), for which the 50% inhibitory concentration (IC50) was > 2500 nM.

Target in a further assay: not listed separately
Description: Antagonist activity at smoothened expressed in mouse Shh Light2 cells co-expressing Gli-dependent reporter gene assessed as inhibition of Hh pathway.
Turning to `O=C(Nc1cccnc1-c1ccccc1)N1CCn2c(c(O)n([C@H]3C[C@@H]3c3ccccc3)c2=O)C1`, the 50% inhibitory concentration (IC50) stood at 28 nM. `O=C(Nc1ccncc1-c1ccccc1)N1CCn2c(c(O)n([C@H]3C[C@@H]3c3ccccc3)c2=O)C1`: the concentration for half-maximal inhibition (IC50) came to 89 nM. For `O=C(Nc1cccnc1-c1cccc(Cl)c1)N1CCn2c(c(O)n([C@H]3C[C@@H]3c3ccccc3)c2=O)C1`, the half-inhibitory concentration (IC50) is 18 nM.

`COc1cccc(-c2ncccc2NC(=O)N2CCn3c(c(O)n([C@H]4C[C@@H]4c4ccccc4)c3=O)C2)c1`: the 50% inhibitory concentration (IC50) came to 82 nM.

Turning to `O=C(Nc1cccnc1-c1ccsc1)N1CCn2c(c(O)n([C@H]3C[C@@H]3c3ccccc3)c2=O)C1`, the half-maximal inhibitory concentration (IC50) is 240 nM.

For the compound `Cn1cc(-c2ncccc2NC(=O)N2CCn3c(c(O)n([C@H]4C[C@@H]4c4ccccc4)c3=O)C2)cn1`, the 50% inhibitory concentration (IC50) came to 1200 nM. `O=C(Nc1ccnn1-c1ccccc1)N1CCn2c(c(O)n([C@H]3C[C@@H]3c3ccccc3)c2=O)C1`: the 50% inhibitory concentration (IC50) is 16 nM. Take `O=C(Nc1ccccc1-c1ccccc1)c1ccc2c(c1)C(=O)N([C@H]1C[C@@H]1c1ccccc1)C2=O`: the IC50 came out at 4600 nM. Consider `O=C(Nc1ccccc1-c1ccccc1)N1CCN2C(=O)N([C@H]3C[C@@H]3c3ccccc3)CC2C1` (stereo not given in full), for which the IC50 was found to be 3000 nM.

For the compound `CC(C)(C)C(=O)N1CCn2c(c(O)n([C@H]3C[C@@H]3c3ccccc3)c2=O)C1`, the IC50 was 4500 nM. With `O=C(NC1CCCCC1)N1CCn2c(c(O)n([C@H]3C[C@@H]3c3ccccc3)c2=O)C1`, the IC50 is 600 nM. As to `CCCCCCNC(=O)N1CCn2c(c(O)n([C@H]3C[C@@H]3c3ccccc3)c2=O)C1`, the half-maximal inhibitory concentration (IC50) came out at 1500 nM. Regarding `CCCCN(CCCC)C(=O)N1CCn2c(c(O)n([C@H]3C[C@@H]3c3ccccc3)c2=O)C1`, the IC50 was 1900 nM. Consider `O=C(Nc1cccc(Cl)c1Cl)N1CCn2c(c(O)n([C@H]3C[C@@H]3c3ccccc3)c2=O)C1`, for which the 50% inhibitory concentration (IC50) was 340 nM. As to `O=C(Nc1cc(Cl)cc(Cl)c1)N1CCn2c(c(O)n([C@H]3C[C@@H]3c3ccccc3)c2=O)C1`, the IC50 worked out at 780 nM. On to `O=C(Nc1ccc2c(c1)OCO2)N1CCn2c(c(O)n([C@H]3C[C@@H]3c3ccccc3)c2=O)C1`, for which the concentration for half-maximal inhibition (IC50) stood at 2700 nM. Still for that read-out and setting: next, `CN(C(=O)N1CCn2c(c(O)n([C@H]3C[C@@H]3c3ccccc3)c2=O)C1)c1ccccc1-c1ccccc1`: 1600 nM.

As for `O=C(Nc1ccccc1-c1ccccc1)N1CCn2c(c(O)n(CCc3ccccc3)c2=O)C1`, the IC50 came out at 5000 nM. Still for that read-out and setting: then `O=C(Nc1ccccc1-c1ccccc1)N1CCn2c(c(O)n(-c3cccc(-c4ccccc4)c3)c2=O)C1`, with 2500 nM.

In the case of `O=C(Nc1ccccc1-c1ccccc1)N1CCn2c(c(O)n(C3Cc4ccccc4C3)c2=O)C1`, the 50% inhibitory concentration (IC50) came out at 320 nM.

In the case of `COC(=O)c1cccc(NC(=O)N2CCn3c(c(O)n([C@H]4C[C@@H]4c4ccccc4)c3=O)C2)c1Cl`, the 50% inhibitory concentration (IC50) was found to be 2200 nM.

Turning to `Cc1c(Cl)cccc1NC(=O)N1CCn2c(c(O)n([C@H]3C[C@@H]3c3ccccc3)c2=O)C1`, the IC50 is 370 nM. As to `Cc1cccc(Cl)c1NC(=O)N1CCn2c(c(O)n([C@H]3C[C@@H]3c3ccccc3)c2=O)C1`, the half-maximal inhibitory concentration (IC50) was 530 nM. Same read-out and setting: next, `O=C(Nc1ccc(F)c(Cl)c1Cl)N1CCn2c(c(O)n([C@H]3C[C@@H]3c3ccccc3)c2=O)C1`: 510 nM; `O=C(Nc1c(Cl)cc(C(F)(F)F)cc1Cl)N1CCn2c(c(O)n([C@H]3C[C@@H]3c3ccccc3)c2=O)C1`: 330 nM.

With `CS(=O)(=O)c1cc(Cl)c(NC(=O)N2CCn3c(c(O)n([C@H]4C[C@@H]4c4ccccc4)c3=O)C2)c(Cl)c1`, the IC50 amounted to 53 nM. Consider `Cc1cc(C#N)cc(Cl)c1NC(=O)N1CCn2c(c(O)n([C@H]3C[C@@H]3c3ccccc3)c2=O)C1`, for which the concentration for half-maximal inhibition (IC50) is 150 nM.

With `CC(C)c1ccccc1NC(=O)N1CCn2c(c(O)n([C@H]3C[C@@H]3c3ccccc3)c2=O)C1`, the IC50 is 180 nM.
